IC50 data for three molecules are collected here from ChEMBL document CHEMBL1150082, “Antheliatin and Zahavins A and B, Three New Cytotoxic Xenicane Diterpenes from Two Soft Corals” (J Nat Prod, 1995).

Assay type in all cases: functional, cell-based
The subject of assay [1] is A549. The assay can be described thus: Cytotoxicity against human A549 cells.
The subject of assay [2] is HT-29. In words: Cytotoxicity against human HT-29 cells.
In assay [3] the test system is P388. In words: Cytotoxicity against mouse P388 cells.
Assay [4] has as its system SK-MEL-28. The assay can be described thus: Cytotoxicity against human SK-MEL-28 cells.

Values after ≈ are worked out from the molar mass of the structure shown.

For `C=C1[C@H]2[C@@H](OC(C)=O)OC=C([C@H](OC(C)=O)[C@@H](C=C(C)C)OC(=O)c3ccccc3)[C@H]2CC/C(C)=C/[C@H](OC(C)=O)[C@H]1O` [ANTHELIATIN], the IC50 was 1 µg/mL (≈ 1.68 µM) in assay [1], 0.1 µg/mL (≈ 0.168 µM) in assay [2], 1 µg/mL (≈ 1.68 µM) in assay [3] and 1 µg/mL (≈ 1.68 µM) in assay [4].
Turning to `C=C(C)C(CC(OC(C)=O)C1=CO[C@H](OC(C)=O)[C@H]2C(=C)CC/C=C(\C)CC[C@H]12)OC(C)=O` (some centres not stated) [ZAHAVIN A], the IC50 in assay [1], in assay [2], in assay [3] and in assay [4] was 1 µg/mL (≈ 2.17 µM) throughout.
As for `C=C(C)C(CC(OC(C)=O)C1=CO[C@H](OC(C)=O)[C@@H]2C(=C)[C@H](O)C/C=C(\C)CC[C@H]12)OC(C)=O` (some centres not stated) [ZAHAVIN B], the IC50 in assay [1], in assay [2], in assay [3] and in assay [4] was 1 µg/mL (≈ 2.1 µM) throughout.

What is called IC50 is the concentration that gives 50% inhibition.
